Source: PubChem BioAssay AID256 (DTP/NCI, 2004)
Several values for one entry are separate records, joined by “and”; a condition that tells them apart may be missing. Identical values can stand only once. Inconclusive results and toxic doses are left out. How the source made its calls: active means survival T/C of 150% or more; inactive means T/C below 125% in these data.

Test system: CD2F1 mice, L1210 leukemia ip, survival T/C
Assay: NCI In Vivo Anticancer Drug Screen. Data for tumor model L1210 Leukemia (intraperitoneal) in CD2F1 (CDF1) mice
Conditions: higher = longer survival
Method in brief: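 Compound-dosed mice with transplantable tumor versus matched vehicle controls; endpoint ratio T/C reported.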

[1] = endpoint: mean survival time, dose: 50.0 mg/kg/injection, schedule: Q01DX009 (ip), vehicle: saline with Tween-80
[2] = endpoint: mean survival time, dose: 100.0 mg/kg/injection, schedule: Q01DX009 (ip), vehicle: saline with Tween-80
[3] = endpoint: mean survival time, dose: 200.0 mg/kg/injection, schedule: Q01DX009 (ip), vehicle: saline with Tween-80
[4] = endpoint: mean survival time, dose: 100.0 mg/kg/injection, schedule: Q01DX009 (ip), vehicle: saline sonified
[5] = endpoint: mean survival time, dose: 100.0 mg/kg/injection, schedule: Q04DX003 (ip), vehicle: saline with Tween-80
[6] = endpoint: mean survival time, dose: 200.0 mg/kg/injection, schedule: Q04DX003 (ip), vehicle: saline with Tween-80
[7] = endpoint: mean survival time, dose: 400.0 mg/kg/injection, schedule: Q04DX003 (ip), vehicle: saline with Tween-80
[8] = endpoint: mean survival time, dose: 12.5 mg/kg/injection, schedule: Q01DX009 (ip), vehicle: saline with Tween-80
[9] = endpoint: mean survival time, dose: 25.0 mg/kg/injection, schedule: Q01DX009 (ip), vehicle: saline with Tween-80
[10] = endpoint: mean survival time, dose: 100.0 mg/kg/injection, schedule: Q01DX001 (ip), vehicle: saline with Tween-80

Measured: T/C

C=CC/C=C/CCCCCC
inactive: [1] 114 % of control | [2] 96 % of control | [3] 107 % of control

O=c1cc(CCl)nc2c3ncn(C4OC(CO)C(O)C4O)c3ncn12 (stereo not drawn)
inactive: endpoint: median survival time, dose: 12.5 mg/kg/injection, schedule: Q01DX005 (ip), vehicle: saline with Tween-80 105 % of control | endpoint: median survival time, dose: 25.0 mg/kg/injection, schedule: Q01DX005 (ip), vehicle: saline with Tween-80 102 % of control | endpoint: median survival time, dose: 50.0 mg/kg/injection, schedule: Q01DX005 (ip), vehicle: saline with Tween-80 98 % of control | endpoint: median survival time, dose: 100.0 mg/kg/injection, schedule: Q01DX005 (ip), vehicle: saline with Tween-80 95 % of control | endpoint: median survival time, dose: 200.0 mg/kg/injection, schedule: Q01DX005 (ip), vehicle: saline with Tween-80 98 % of control

CCOC1CC2c3ccccc3C1c1cccc[n+]12 (stereo not drawn)
inactive: endpoint: mean survival time, dose: 100.0 mg/kg/injection, schedule: Q04DX003 (ip), vehicle: saline 104 % of control

O=C1c2ccccc2C2c3[nH]c4ccccc4c3CCN12 (stereo not drawn)
inactive: [4] 97 % of control | [5] 87 % of control | endpoint: mean survival time, dose: 200.0 mg/kg/injection, schedule: Q01DX009 (ip), vehicle: saline sonified 96 % of control | [6] 95 % of control | endpoint: mean survival time, dose: 400.0 mg/kg/injection, schedule: Q01DX009 (ip), vehicle: saline sonified 97 % of control | [7] 93 % of control

N#CCC(N)=S
inactive: [8] 112 % of control | [9] 106 % of control | [1] 96 % of control

C/C(=C/C(C)(C)C)C1CCCCC1C (stereo not drawn)
inactive: [1] 100 % of control | [2] 100 % of control | [3] 116 % of control

CC1=C(/C=C/C(=O)CC(O)(C(F)(F)F)C(F)(F)F)C(C)(C)CCC1
inactive: [5] 104 % of control | [6] 98 % of control | [7] 101 % of control

Cc1cccc(CCF)c1
inactive: [10] 110 % of control | endpoint: mean survival time, dose: 200.0 mg/kg/injection, schedule: Q01DX001 (ip), vehicle: saline with Tween-80 107 % of control | endpoint: mean survival time, dose: 400.0 mg/kg/injection, schedule: Q01DX001 (ip), vehicle: saline with Tween-80 98 % of control

COC(=O)CCc1nc2ccccc2c(=O)[nH]1
inactive: endpoint: mean survival time, dose: 100.0 mg/kg/injection, schedule: Q04DX003 (ip), vehicle: Klucel (hydroxypropylcellulose) (HPC) 102 % of control | endpoint: mean survival time, dose: 200.0 mg/kg/injection, schedule: Q04DX003 (ip), vehicle: Klucel (hydroxypropylcellulose) (HPC) 109 % of control | endpoint: mean survival time, dose: 400.0 mg/kg/injection, schedule: Q04DX003 (ip), vehicle: Klucel (hydroxypropylcellulose) (HPC) 102 % of control

O=[N+]([O-])c1ccc(/C=N/O)s1
inactive: [8] 106 % of control | [9] 98 % of control

CC1=CC(c2ccccc2)=CC(C)(C)C1 (tested in a mixture with another compound)
inactive: endpoint: mean survival time, dose: 25.0 mg/kg/injection, schedule: Q01DX009 (ip), vehicle: saline sonified 95 % of control | endpoint: mean survival time, dose: 50.0 mg/kg/injection, schedule: Q01DX009 (ip), vehicle: saline sonified 103 % of control | [4] 103 % of control | [5] 94 % of control

COc1cc(OC)c(NC(=O)OCCOc2ccc(Cl)cc2Cl)cc1Cl
inactive: [1] 92 % of control | [2] 88 % of control

NC(=O)CCC(N)C(=O)O (stereo not drawn)
inactive: endpoint: mean survival time, dose: 1.56 mg/kg/injection, schedule: Q01DX009 (ip), vehicle: saline 93 % of control | endpoint: mean survival time, dose: 3.13 mg/kg/injection, schedule: Q01DX009 (ip), vehicle: saline 104 % of control | endpoint: mean survival time, dose: 6.25 mg/kg/injection, schedule: Q01DX009 (ip), vehicle: saline 104 % of control | endpoint: median survival time, dose: 25.0 mg/kg/injection, schedule: Q01DX009 (ip), vehicle: saline 94 % of control | endpoint: median survival time, dose: 50.0 mg/kg/injection, schedule: Q01DX009 (ip), vehicle: saline 106 % of control | endpoint: median survival time, dose: 100.0 mg/kg/injection, schedule: Q01DX009 (ip), vehicle: saline 106 % of control | endpoint: median survival time, dose: 200.0 mg/kg/injection, schedule: Q01DX009 (ip), vehicle: saline 106 % of control | endpoint: median survival time, dose: 400.0 mg/kg/injection, schedule: Q01DX009 (ip), vehicle: saline 104 % of control

CC1(C)N=C(N)N=C(N)N1c1ccc(OCCCCNC(=O)Nc2ccc(S(=O)(=O)F)cc2)c(Cl)c1
inactive: endpoint: mean survival time, dose: 25.0 mg/kg/injection, schedule: Q01DX001 (ip), vehicle: saline with Tween-80 101 % of control | endpoint: mean survival time, dose: 50.0 mg/kg/injection, schedule: Q01DX001 (ip), vehicle: saline with Tween-80 95 % of control | [10] 94 % of control and 95 % of control

N/N=C1/C(=O)c2cccc3cccc1c23
inactive: [5] 100 % of control | [6] 102 % of control | [7] 92 % of control

c1ccc(COCCOc2ccccc2)cc1
inactive: [5] 96 % of control | [6] 98 % of control | [7] 102 % of control

COc1ccccc1OC
inactive: [2] 95 % of control | [3] 92 % of control | endpoint: mean survival time, dose: 400.0 mg/kg/injection, schedule: Q01DX009 (ip), vehicle: saline with Tween-80 92 % of control
